Experimental data from PubChem BioAssay (NCI).
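The concentration for 50% growth inhibition is given as GI50. The concentration for full growth arrest is given as TGI.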

Assays:
Assay in all cases: NCI anticancer screen, dose series, 384-well format
[1] = system: CAKI-1 renal
[2] = system: NCI-H522 lung
[3] = system: NCI-H23 lung
[4] = system: OVCAR-8 ovarian
[5] = system: RPMI-8226 leukemia
[6] = system: IGROV1 ovarian
[7] = system: HCT-15 colon
[8] = system: LOX IMVI melanoma
[9] = system: SF-539 CNS
[10] = system: A549 NSCLC
[11] = system: HT29 colon
[12] = system: UO-31 renal
[13] = system: BT-549 breast
[14] = system: EKVX NSCLC
[15] = system: SNB-75 CNS
[16] = system: MOLT-4 leukemia
[17] = system: NCI-H322M lung
[18] = system: NCI/ADR-RES ovarian
[19] = system: OVCAR-5 ovarian
[20] = system: M14 melanoma
[21] = system: SK-MEL-5 melanoma
[22] = system: MDA-MB-435 melanoma
[23] = system: KM12 colon
[24] = system: SW-620 colon
[25] = system: HS 578T breast
[26] = system: CCRF-CEM leukemia
[27] = system: UACC-257 melanoma
[28] = system: SK-MEL-28 melanoma
[29] = system: HCC-2998 colon
[30] = system: HL-60(TB) leukemia
[31] = system: RXF 393 renal
[32] = system: TK-10 renal
[33] = system: SN12C renal
[34] = system: MCF7 breast
[35] = system: K-562 leukemia
[36] = system: PC-3 prostate
[37] = system: T-47D breast
[38] = system: A498 renal
[39] = system: MDA-MB-231 breast
[40] = system: MALME-3M melanoma
[41] = system: UACC-62 melanoma
[42] = system: HOP-92 NSCLC
[43] = system: HOP-62 NSCLC
[44] = system: NCI-H226 lung
[45] = system: DU-145 prostate
[46] = system: NCI-H460 NSCLC
[47] = system: 786-0 renal
[48] = system: SF-268 CNS
[49] = system: COLO 205 colon
[50] = system: SF-295 CNS
[51] = system: ACHN renal
[52] = system: OVCAR-3 ovarian
[53] = system: SNB-19 CNS
[54] = system: MDA-MB-468 breast
[55] = system: OVCAR-4 ovarian
[56] = system: SK-OV-3 ovarian
[57] = system: U251 glioblastoma
[58] = system: SR leukemia

## CC1(C)CN(c2cc(C(F)(F)F)cc3cncn23)CCC12NC(=O)NC2=O (stereo unspecified)
[1]
  GI50: 30.6 µM
  TGI: > 100 µM
[2]
  GI50: 54 µM
  TGI: > 100 µM
[3]
  GI50: 30.7 µM
  TGI: > 100 µM
[4]
  GI50: 33.5 µM
  TGI: > 100 µM
[5]
  GI50: 15.3 µM
  TGI: 45.8 µM
[6]
  GI50: 27.8 µM
  TGI: 75.8 µM
[7]
  GI50: 40.6 µM
  TGI: > 100 µM
[8]
  GI50: 32.5 µM
  TGI: > 100 µM
[9]
  GI50: 91.7 µM
  TGI: > 100 µM
[10]
  GI50: 35.3 µM
  TGI: > 100 µM
[11]
  GI50: 46 µM
  TGI: > 100 µM
[12]
  GI50: 56.8 µM
  TGI: > 100 µM
[13]
  GI50: 19.8 µM
  TGI: > 100 µM
[14]
  GI50: 15.1 µM
  TGI: 59.7 µM
[15]
  GI50: 42.4 µM
  TGI: > 100 µM
[16]
  GI50: 12.3 µM
  TGI: 25.1 µM
[17]
  GI50: 57.8 µM
  TGI: > 100 µM
[18]
  GI50: > 100 µM
  TGI: > 100 µM
[19]
  GI50: 39.4 µM
  TGI: > 100 µM
[20]
  GI50: 48.1 µM
  TGI: > 100 µM
[21]
  GI50: 33.5 µM
  TGI: 95.7 µM
[22]
  GI50: 62.2 µM
  TGI: > 100 µM
[23]
  GI50: 36 µM
  TGI: > 100 µM
[24]
  GI50: > 100 µM
  TGI: > 100 µM
[25]
  GI50: 12.9 µM
  TGI: 35.6 µM
[26]
  GI50: 12 µM
  TGI: 26.7 µM
[27]
  GI50: 61.3 µM
  TGI: > 100 µM
[28]
  GI50: 47.8 µM
  TGI: > 100 µM
[29]
  GI50: 29.4 µM
  TGI: 73.9 µM
[30]
  GI50: 14.5 µM
  TGI: 27.8 µM
[31]
  GI50: 29.4 µM
  TGI: > 100 µM
[32]
  GI50: 35.5 µM
  TGI: > 100 µM
[33]
  GI50: 40.4 µM
  TGI: > 100 µM
[34]
  GI50: 26 µM
  TGI: 99.6 µM
[35]
  GI50: 42.6 µM
  TGI: > 100 µM
[36]
  GI50: 26.2 µM
  TGI: 99.2 µM
[37]
  GI50: 29.2 µM
  TGI: > 100 µM
[38]
  GI50: 26 µM
  TGI: > 100 µM
[39]
  GI50: 32.2 µM
  TGI: > 100 µM
[40]
  GI50: 28.1 µM
  TGI: 88.7 µM
[41]
  GI50: 19.2 µM
  TGI: 63.7 µM
[42]
  GI50: 26.1 µM
  TGI: > 100 µM
[43]
  GI50: 28.3 µM
  TGI: > 100 µM
[44]
  GI50: 26.6 µM
  TGI: > 100 µM
[45]
  GI50: 40 µM
  TGI: > 100 µM
[46]
  GI50: 38.1 µM
  TGI: > 100 µM
[47]
  GI50: 35.1 µM
  TGI: > 100 µM
[48]
  GI50: 26.9 µM
  TGI: > 100 µM
[49]
  GI50: 68.9 µM
  TGI: > 100 µM
[50]
  GI50: 24.8 µM
  TGI: 74.8 µM
[51]
  GI50: 38.2 µM
  TGI: > 100 µM
[52]
  GI50: 28.4 µM
  TGI: > 100 µM
[53]
  GI50: 55.7 µM
  TGI: > 100 µM
[54]
  GI50: 12.5 µM
  TGI: 35.2 µM
[55]
  GI50: 18.8 µM
  TGI: 82.6 µM
[56]
  GI50: 40.9 µM
  TGI: > 100 µM

## C[C@@]1(C(=O)Nc2ccc(F)nc2)CCCN1c1nc(Nc2cc(C3CC3)[nH]n2)c2cccn2n1
[1]
  GI50: 1.3 µM
  TGI: 5.28 µM
[2]
  GI50: 0.864 µM
  TGI: 7.46 µM
[3]
  GI50: 0.223 µM
  TGI: 3.87 µM
[4]
  GI50: 4.09 µM
  TGI: 18.7 µM
[5]
  GI50: 0.201 µM
  TGI: 0.491 µM
[6]
  GI50: 1.72 µM
  TGI: 7.19 µM
[7]
  GI50: 0.703 µM
  TGI: 12.2 µM
[8]
  GI50: 1.93 µM
  TGI: 13 µM
[57]
  GI50: 5.48 µM
  TGI: 19.4 µM
[9]
  GI50: 1.91 µM
  TGI: 11 µM
[10]
  GI50: 0.63 µM
  TGI: 15.4 µM
[11]
  GI50: < 0.01 µM
  TGI: 10.5 µM
[12]
  GI50: 3.75 µM
  TGI: 18.2 µM
[13]
  GI50: 1.71 µM
  TGI: 7.62 µM
[14]
  GI50: 0.681 µM
  TGI: 9.59 µM
[15]
  GI50: 1.14 µM
  TGI: 3.57 µM
[16]
  GI50: 0.224 µM
  TGI: 0.439 µM
[17]
  GI50: 3.87 µM
  TGI: 20.1 µM
[18]
  GI50: 2.36 µM
  TGI: 10.7 µM
[19]
  GI50: 1.5 µM
  TGI: 8.62 µM
[20]
  GI50: 1.7 µM
  TGI: 16.8 µM
[21]
  GI50: 1.78 µM
  TGI: 15.9 µM
[22]
  GI50: 14.4 µM
  TGI: 27.6 µM
[23]
  GI50: 0.03 µM
  TGI: 0.204 µM
[24]
  GI50: 0.644 µM
  TGI: 14.4 µM
[58]
  GI50: 0.18 µM
  TGI: 0.336 µM
[25]
  GI50: 1.51 µM
  TGI: 3.8 µM
[27]
  GI50: 0.694 µM
  TGI: 16.4 µM
[28]
  GI50: 10.6 µM
  TGI: 22.7 µM
[29]
  GI50: 10.6 µM
  TGI: 22.7 µM
[30]
  GI50: < 0.01 µM
  TGI: 0.126 µM
[31]
  GI50: 2.25 µM
  TGI: 12.7 µM
[32]
  GI50: 2.49 µM
  TGI: 20.1 µM
[33]
  GI50: 2.07 µM
  TGI: 6.96 µM
[34]
  GI50: 0.0388 µM
  TGI: 12.4 µM
[35]
  GI50: 3.81 µM
  TGI: 15.4 µM
[36]
  GI50: 2.67 µM
  TGI: 14.4 µM
[37]
  GI50: 0.651 µM
  TGI: 14.3 µM
[38]
  GI50: 1.72 µM
  TGI: 17.1 µM
[39]
  GI50: 1.58 µM
  TGI: 12.5 µM
[40]
  GI50: 0.356 µM
  TGI: 16.6 µM
[41]
  GI50: 1.75 µM
  TGI: 15.7 µM
[42]
  GI50: 0.289 µM
  TGI: 2.68 µM
[43]
  GI50: 1.87 µM
  TGI: 13.2 µM
[44]
  GI50: 0.557 µM
  TGI: 7.05 µM
[45]
  GI50: 0.995 µM
  TGI: 12.5 µM
[46]
  GI50: 0.239 µM
  TGI: 1.17 µM
[47]
  GI50: 2.12 µM
  TGI: 11.3 µM
[48]
  GI50: 1.44 µM
  TGI: 6.55 µM
[49]
  GI50: < 0.01 µM
  TGI: 0.189 µM
[50]
  GI50: 0.837 µM
  TGI: 4.19 µM
[51]
  GI50: 2.43 µM
  TGI: 16 µM
[52]
  GI50: 0.842 µM
  TGI: 9.82 µM
[53]
  GI50: 8.33 µM
  TGI: 29.3 µM
[54]
  GI50: 0.246 µM
  TGI: 0.561 µM
[55]
  GI50: 0.935 µM
  TGI: 4.21 µM
[56]
  GI50: 2.69 µM
  TGI: 14 µM
